Results from patent US20230005594A1, “CLINICAL DECISION SUPPORT FOR PERSONALIZED ADAPTIVE PROSTATE CANCER THERAPY” (H. LEE MOFFITT CANCER CENTER AND RESEARCH INSTITUTE, INC., priority 2019, published 2023).
Where “and” joins values, the source holds several entries; their conditions need not be identical. Equal values may be shown once. Read-outs that look alike come from different tables or passages of the source.

Experiments:
[1] = system: metastatic castration resistant prostate cancer (mCRPC); settings: cited from earlier work
castration-resistant PCa = assay: Clinical trial of second-line intermittent AA therapy (NCT02415621); format: in vivo, human
Source text: Prior theoretical, pre-clinical, and clinical studies have questioned the utilization of MTD treatment in non-curative settings. That is, continuous MTD treatment fails to consider the evolutionary dynamics of treatment presponse, where competition, adaptation and selection between treatment sensitive and resistant cells contribute to therapy failure. In fact, this strategy, by maximally selecting for resistant phenotypes and eliminating other competing populations, may actually accelerate the emergence of resistant populations—a well-studied evolutionary phenomenon termed “competitive release.” In part to address this issue, prior trials have used an intermittent on- and off-ADT (IADT) to reduce toxicity and delay time to progression (TTP). […]
Survival benefits have not been confirmed clinically, which can be due to the conservative trial designs of long on-treatment cycles (7-8 months) and short off-cycles. […] PSA values can be monitored every four weeks as done in the clinic. […] For Patient 36, relative PSA values of 50% or 90% of pre-treatment PSA levels as triggers to pause IADT and pre-treatment PSA levels to resume IADT yield longer TTP than the static triggers (PSA monitored every 4 weeks, IADT is paused if PSA<4 ng/mL for consecutive 36 weeks, and IADT resumes if PSA>10 ng/mL). […]

PCa = settings: cited from earlier work
advanced prostate cancer = settings: patients with advanced prostate cancer; cited from earlier work
PCaSC = settings: cited from earlier work
hormone-refractory PCa = settings: docetaxel added at end of ADT; cited from earlier work
[2] = system: metastatic, hormone-sensitive PCa; settings: cited from earlier work
[3] = abiraterone plus gonadotropin-releasing hormone analog, AA-302 trial
[4] = docetaxel plus ADT, added at beginning of hormone therapy

Compound | PSA response rate [1, 3] | median time to progression [1, 3] | overall survival compared to prednisone or placebo ([1]; second-line hormone therapy) | median TTP (castration-resistant PCa; continuous MTD AA) | median TTP (castration-resistant PCa; intermittent AA therapy, median not reached) | increase in overall survival time compared to ADT alone (PCa; docetaxel added at beginning of long-term hormone therapy) | TTP (PCa; [4]) | overall survival time (PCa; [4]) | Total tumor regression rate (δS+δC), median (advanced prostate cancer) | Total tumor regression rate (δS+δC), range (advanced prostate cancer) | PCaSC docetaxel sensitivity as share of PCaC sensitivity (PCaSC) | increase in survival (hormone-refractory PCa) | survival (hormone-refractory PCa) | survival benefit ([2]; CHAARTED trial, LVD patients) | overall survival benefit ([2]; CHAARTED trial, patients with HVD) | increase in overall survival ([2]; GETUG-AFU15, high volume disease (HVD), DOC with continuous ADT, non-significant) | survival benefit ([2]; GETUG-AFU15, low volume disease (LVD)) | overall survival benefit ([2]; STAMPEDE trial, median follow-up of 43 months)
CC(=O)O[C@H]1CC[C@@]2(C)C(=CC[C@@H]3[C@@H]2CC[C@]2(C)C(c4cccnc4)=CC[C@@H]32)C1 [abiraterone acetate] | 62% | 11.1 months | prolong overall survival | 13 months | at least 33 months |  |  |  |  |  |  |  |  |  |  |  |  | 
CC(=O)O[C@@]12CO[C@@H]1C[C@H](O)[C@@]1(C)C(=O)[C@H](O)C3=C(C)[C@@H](OC(=O)[C@H](O)[C@@H](NC(=O)OC(C)(C)C)c4ccccc4)C[C@@](O)([C@@H](OC(=O)c4ccccc4)[C@H]21)C3(C)C [docetaxel] |  |  |  |  |  | 10-13 months | 20.2 months | 81 months and 57.6 months | 0.015 day⁻¹ | 0.006 to 0.032 day⁻¹ | about 25% | 2.4 months | 18.9 months | no statistically significant survival benefit | statistically significant overall survival benefit | 20% | no survival benefit | more than 12 months
